Results from patent US20240024488A1, “COMPOUNDS AND USES THEREOF” (Foghorn Therapeutics Inc., priority 2020, published 2024).

What was measured:
[1] = biological target: T1, HiBit-BRG1 fusion protein (Homo sapiens, UniProt P51532); test: HiBiT-BRG1 cell-based degradation assay (Nano-Glo HiBiT Lytic Detection, 24 h); conditions: HeLa cell line expressing HiBit-BRG1 and LgBit; for Dmax: read-out: BRG1 HiBit Degradation Maximum (%); for DC50: read-out: BRMG1 HiBit Degradation IC50
T1 construct: expressed in transfected cells
T1 sequence (P51532 whole entry, the tested form may be a part): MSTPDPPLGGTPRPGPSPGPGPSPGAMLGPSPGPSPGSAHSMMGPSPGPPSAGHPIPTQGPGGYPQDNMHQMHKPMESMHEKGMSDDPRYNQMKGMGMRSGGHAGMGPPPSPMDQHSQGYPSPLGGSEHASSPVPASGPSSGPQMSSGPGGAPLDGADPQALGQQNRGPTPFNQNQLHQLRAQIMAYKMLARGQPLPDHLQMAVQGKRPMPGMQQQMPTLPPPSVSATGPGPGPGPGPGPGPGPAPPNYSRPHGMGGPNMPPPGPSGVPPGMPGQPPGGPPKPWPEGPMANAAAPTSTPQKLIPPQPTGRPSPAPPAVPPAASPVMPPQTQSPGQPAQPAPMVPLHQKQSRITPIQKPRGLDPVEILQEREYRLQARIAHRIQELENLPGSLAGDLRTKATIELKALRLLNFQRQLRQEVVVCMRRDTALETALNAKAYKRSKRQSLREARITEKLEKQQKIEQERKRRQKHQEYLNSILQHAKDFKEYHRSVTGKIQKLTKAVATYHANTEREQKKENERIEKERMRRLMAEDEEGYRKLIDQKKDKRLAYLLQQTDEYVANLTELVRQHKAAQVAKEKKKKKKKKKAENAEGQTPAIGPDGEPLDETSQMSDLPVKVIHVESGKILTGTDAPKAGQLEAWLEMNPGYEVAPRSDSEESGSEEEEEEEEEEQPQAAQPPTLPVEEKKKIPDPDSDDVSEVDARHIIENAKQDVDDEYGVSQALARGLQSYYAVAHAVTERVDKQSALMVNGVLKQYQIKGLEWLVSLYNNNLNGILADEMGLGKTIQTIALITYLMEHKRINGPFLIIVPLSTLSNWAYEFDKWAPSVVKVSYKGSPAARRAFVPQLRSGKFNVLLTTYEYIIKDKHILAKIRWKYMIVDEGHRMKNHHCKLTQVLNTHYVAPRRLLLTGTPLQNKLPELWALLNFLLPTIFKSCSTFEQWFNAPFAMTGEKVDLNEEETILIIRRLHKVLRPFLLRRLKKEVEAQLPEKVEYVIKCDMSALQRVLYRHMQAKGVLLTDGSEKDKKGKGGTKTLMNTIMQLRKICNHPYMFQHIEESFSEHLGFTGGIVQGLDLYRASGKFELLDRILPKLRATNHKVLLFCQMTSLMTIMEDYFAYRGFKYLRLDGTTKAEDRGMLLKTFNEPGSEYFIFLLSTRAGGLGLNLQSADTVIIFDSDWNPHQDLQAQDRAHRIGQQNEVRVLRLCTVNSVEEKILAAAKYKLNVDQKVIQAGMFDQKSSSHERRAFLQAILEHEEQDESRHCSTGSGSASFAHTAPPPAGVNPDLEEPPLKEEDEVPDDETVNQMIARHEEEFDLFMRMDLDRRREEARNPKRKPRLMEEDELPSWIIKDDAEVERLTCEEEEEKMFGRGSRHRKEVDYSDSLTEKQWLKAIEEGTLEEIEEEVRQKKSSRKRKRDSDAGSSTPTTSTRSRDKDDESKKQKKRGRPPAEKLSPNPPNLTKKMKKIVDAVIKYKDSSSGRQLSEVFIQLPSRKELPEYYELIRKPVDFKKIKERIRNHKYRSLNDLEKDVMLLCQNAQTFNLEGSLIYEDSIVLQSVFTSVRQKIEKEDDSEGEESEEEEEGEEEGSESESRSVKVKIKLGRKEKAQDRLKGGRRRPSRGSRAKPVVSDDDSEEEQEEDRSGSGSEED
Summary of the method: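 Luminescence from Nano-Glo HiBiT lytic detection, read after 24 h compound exposure, scored degradation in a stable HeLa HiBiT-BRG1/LgBit line seeded at 5000 cells/well. DMSO wells defined 0% and 2 μM known BRM/BRG1 degrader wells defined full degradation.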

[2] = biological target: T2, HiBit-BRM fusion protein (Homo sapiens, UniProt P51531); test: HiBiT-BRM cell-based degradation assay (Nano-Glo HiBiT Lytic Detection, 24 h); conditions: HeLa cell line expressing HiBiT-BRM; for DC50: read-out: BRM HiBit Degradation IC50
T2 construct: expressed in transfected cells
T2 sequence (P51531 whole entry, the tested form may be a part): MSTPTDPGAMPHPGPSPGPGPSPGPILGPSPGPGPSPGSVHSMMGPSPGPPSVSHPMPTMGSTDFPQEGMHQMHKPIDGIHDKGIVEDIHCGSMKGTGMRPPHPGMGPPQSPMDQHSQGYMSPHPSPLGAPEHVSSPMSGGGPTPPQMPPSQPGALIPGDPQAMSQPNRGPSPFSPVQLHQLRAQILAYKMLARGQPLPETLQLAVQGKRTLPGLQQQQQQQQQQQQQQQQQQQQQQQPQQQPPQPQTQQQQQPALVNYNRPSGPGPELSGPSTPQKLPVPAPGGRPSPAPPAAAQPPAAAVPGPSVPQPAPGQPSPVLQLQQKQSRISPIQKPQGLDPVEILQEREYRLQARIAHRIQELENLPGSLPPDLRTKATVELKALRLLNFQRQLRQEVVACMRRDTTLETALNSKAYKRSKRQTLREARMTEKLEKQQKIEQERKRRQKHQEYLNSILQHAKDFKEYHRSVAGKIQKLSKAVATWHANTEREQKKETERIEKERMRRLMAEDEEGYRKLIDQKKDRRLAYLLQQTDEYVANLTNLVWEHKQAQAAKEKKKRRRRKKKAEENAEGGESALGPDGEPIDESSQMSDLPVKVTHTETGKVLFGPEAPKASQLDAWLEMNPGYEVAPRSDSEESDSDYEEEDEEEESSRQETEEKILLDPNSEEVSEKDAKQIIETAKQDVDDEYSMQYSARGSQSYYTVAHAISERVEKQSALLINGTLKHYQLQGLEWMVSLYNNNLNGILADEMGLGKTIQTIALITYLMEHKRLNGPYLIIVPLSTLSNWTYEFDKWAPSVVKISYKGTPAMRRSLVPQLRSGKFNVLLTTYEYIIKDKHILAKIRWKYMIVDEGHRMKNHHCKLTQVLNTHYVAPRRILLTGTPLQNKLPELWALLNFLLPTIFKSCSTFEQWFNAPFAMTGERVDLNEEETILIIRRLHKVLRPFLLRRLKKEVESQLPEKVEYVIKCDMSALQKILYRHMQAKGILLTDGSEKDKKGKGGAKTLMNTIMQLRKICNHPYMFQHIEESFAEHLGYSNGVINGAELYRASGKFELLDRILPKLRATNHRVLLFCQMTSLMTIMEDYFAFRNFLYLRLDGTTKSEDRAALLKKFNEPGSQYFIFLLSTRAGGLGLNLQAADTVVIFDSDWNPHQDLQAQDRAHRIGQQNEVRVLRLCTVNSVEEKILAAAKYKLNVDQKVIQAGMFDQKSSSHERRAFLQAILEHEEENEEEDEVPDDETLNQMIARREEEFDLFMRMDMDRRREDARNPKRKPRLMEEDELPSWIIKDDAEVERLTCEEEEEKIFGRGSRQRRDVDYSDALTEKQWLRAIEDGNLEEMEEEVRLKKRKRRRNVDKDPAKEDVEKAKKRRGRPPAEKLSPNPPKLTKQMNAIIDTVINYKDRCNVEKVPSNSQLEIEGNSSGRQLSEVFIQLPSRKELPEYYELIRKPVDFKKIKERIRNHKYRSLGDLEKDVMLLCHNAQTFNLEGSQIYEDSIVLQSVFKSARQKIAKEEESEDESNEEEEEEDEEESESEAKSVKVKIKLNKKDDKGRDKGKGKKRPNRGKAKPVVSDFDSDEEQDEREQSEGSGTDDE
Summary of the method: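 Stable HiBiT-BRM HeLa line; 24 h compound exposure, top final 30 μM, 3-fold, 10 pts in duplicate. Lytic HiBiT/LgBiT luminescence readout. % degradation vs DMSO (0%) and 2 μM known BRM/BRG1 degrader (100%).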

`Cc1ncsc1-c1ccc([C@H](C)NC(=O)[C@@H]2C[C@@H](O)CN2C(=O)[C@@H](c2cc(OCCCN3CC4(CC(c5c[nH]c6nnc(-c7ccccc7O)cc56)C4)C3)no2)C(C)C)cc1` (racemic) [Compound 211, (2S,4R)-4-hydroxy-1-((R)-2-(3-(3-(6-(3-(2-hydroxyphenyl)-7H-pyrrolo[2,3-c]pyridazin-5-yl)-2-azaspiro[3.3]heptan-2-yl)propoxy)isoxazol-5-yl)-3-methylbutanoyl)-N-((S)-1-(4-(4-methylthiazol-5-yl)phenyl)ethyl)pyrrolidine-2-carboxamide] was tested, and the Dmax [1] was greater than 75%, the DC50 [1] was greater than 100 nM and the “BRM HiBit Degradation Maximum (%)” value [2] was “A (“A” indicates maximum degradation ≥ 75%)”. The DC50 [2] was greater than 10 nM.
For `Cc1ncsc1-c1ccc([C@H](C)NC(=O)[C@@H]2C[C@@H](O)CN2C(=O)[C@@H](c2cc(OCCNCc3cc4cc(-c5ccccc5O)nnc4[nH]3)no2)C(C)C)cc1` (racemic) [Compound 212, (2S,4R)-4-hydroxy-1-((R)-2-(3-(2-(((3-(2-hydroxyphenyl)-7H-pyrrolo[2,3-c]pyridazin-6-yl)methyl)amino)ethoxy)isoxazol-5-yl)-3-methylbutanoyl)-N-((S)-1-(4-(4-methylthiazol-5-yl)phenyl)ethyl)pyrrolidine-2-carboxamide], the Dmax [1] was less than 50%, the “BRM HiBit Degradation Maximum (%)” value [2] was “A (“A” indicates maximum degradation ≥ 75%)” and the DC50 [2] was greater than 100 nM.
In the case of `Cc1ncsc1-c1ccc([C@H](C)NC(=O)[C@@H]2C[C@@H](O)CN2C(=O)[C@@H](c2cc(OCCNCC34CC(c5cc6cc(-c7ccccc7O)nnc6[nH]5)(C3)C4)no2)C(C)C)cc1` (racemic) [Compound 213, (2S,4R)-4-hydroxy-1-((R)-2-(3-(2-(((3-(3-(2-hydroxyphenyl)-7H-pyrrolo[2,3-c]pyridazin-6-yl)bicyclo[1.1.1]pentan-1-yl)methyl)amino)ethoxy)isoxazol-5-yl)-3-methylbutanoyl)-N-((S)-1-(4-(4-methylthiazol-5-yl)phenyl)ethyl)pyrrolidine-2-carboxamide], the Dmax [1] is reported as greater than 75%, the DC50 [1] is reported as greater than 100 nM and the “BRM HiBit Degradation Maximum (%)” value [2] is reported as “A (“A” indicates maximum degradation ≥ 75%)”. For the same molecule, the DC50 [2] was greater than 10 nM.
For `Cc1ncsc1-c1ccc([C@H](C)NC(=O)[C@@H]2C[C@@H](O)CN2C(=O)[C@@H](c2cc(OCCCN3CCN(Cc4cc5cc(-c6ccccc6O)nnc5[nH]4)CC3)no2)C(C)C)cc1` (racemic) [Compound 214, (2S,4R)-4-hydroxy-1-((R)-2-(3-(3-(4-((3-(2-hydroxyphenyl)-7H-pyrrolo[2,3-c]pyridazin-6-yl)methyl)piperazin-1-yl)propoxy)isoxazol-5-yl)-3-methylbutanoyl)-N-((S)-1-(4-(4-methylthiazol-5-yl)phenyl)ethyl)pyrrolidine-2-carboxamide], the Dmax [1] was greater than 75%, the DC50 [1] was greater than 100 nM and the “BRM HiBit Degradation Maximum (%)” value [2] was “A (“A” indicates maximum degradation ≥ 75%)”. The DC50 [2] was greater than 100 nM.
For `Cc1ncsc1-c1ccc([C@H](C)NC(=O)[C@@H]2C[C@@H](O)CN2C(=O)[C@H](c2cc(OCCCN3C[C@@H]4[C@H](C3)[C@H]4c3cc4cc(-c5ccccc5O)nnc4[nH]3)no2)C(C)C)cc1` (racemic) [Compound 215, (2S,4R)-4-hydroxy-1-((S)-2-(3-(3-((1R,5S,6S)-6-(3-(2-hydroxyphenyl)-7H-pyrrolo[2,3-c]pyridazin-6-yl)-3-azabicyclo[3.1.0]hexan-3-yl)propoxy)isoxazol-5-yl)-3-methylbutanoyl)-N-((S)-1-(4-(4-methylthiazol-5-yl)phenyl)ethyl)pyrrolidine-2-carboxamide], the Dmax [1] was less than 50% and the “BRM HiBit Degradation Maximum (%)” value [2] was “C (“C” indicates maximum degradation < 50%)”.
In the case of `Cc1ncsc1-c1ccc([C@H](C)NC(=O)[C@@H]2C[C@@H](O)CN2C(=O)[C@@H](c2cc(OCCCN3C[C@@H]4[C@H](C3)[C@H]4c3cc4cc(-c5ccccc5O)nnc4[nH]3)no2)C(C)C)cc1` (racemic) [Compound 216, (2S,4R)-4-hydroxy-1-((R)-2-(3-(3-((1R,5S,6R)-6-(3-(2-hydroxyphenyl)-7H-pyrrolo[2,3-c]pyridazin-6-yl)-3-azabicyclo[3.1.0]hexan-3-yl)propoxy)isoxazol-5-yl)-3-methylbutanoyl)-N-((S)-1-(4-(4-methylthiazol-5-yl)phenyl)ethyl)pyrrolidine-2-carboxamide], the Dmax [1] is reported as less than 50%, the “BRM HiBit Degradation Maximum (%)” value [2] is reported as “A (“A” indicates maximum degradation ≥ 75%)” and the DC50 [2] is reported as greater than 100 nM.
`Cc1ncsc1-c1ccc([C@H](C)NC(=O)[C@@H]2C[C@@H](O)CN2C(=O)[C@@H](c2cc(OCCNC34CC(c5[nH]c6nnc(-c7ccccc7O)cc6c5C)(C3)C4)no2)C(C)C)cc1` (racemic) [Compound 220, (2S,4R)-4-hydroxy-1-((R)-2-(3-(2-((3-(3-(2-hydroxyphenyl)-5-methyl-7H-pyrrolo[2,3-c]pyridazin-6-yl)bicyclo[1.1.1]pentan-1-yl)amino)ethoxy)isoxazol-5-yl)-3-methylbutanoyl)-N-((S)-1-(4-(4-methylthiazol-5-yl)phenyl)ethyl)pyrrolidine-2-carboxamide] was tested, and the Dmax [1] was greater than 75%, the DC50 [1] was greater than 10 nM and the “BRM HiBit Degradation Maximum (%)” value [2] was “A (“A” indicates maximum degradation ≥ 75%)”. For the same molecule, the DC50 [2] was less than 10 nM.
For `Cc1ncsc1-c1ccc([C@H](C)NC(=O)[C@@H]2C[C@@H](O)CN2C(=O)[C@@H](c2cc(OCCN(C)CCC(=O)N3CC(c4c[nH]c5nnc(-c6ccccc6O)cc45)C3)no2)C(C)C)cc1` (racemic) [Compound 221, (2S,4R)-4-hydroxy-1-((R)-2-(3-(2-((3-(3-(3-(2-hydroxyphenyl)-7H-pyrrolo[2,3-c]pyridazin-5-yl)azetidin-1-yl)-3-oxopropyl)(methyl)amino)ethoxy)isoxazol-5-yl)-3-methylbutanoyl)-N-((S)-1-(4-(4-methylthiazol-5-yl)phenyl)ethyl)pyrrolidine-2-carboxamide], the Dmax [1] was less than 50%, the “BRM HiBit Degradation Maximum (%)” value [2] was “B (“B” indicates maximum degradation ≥ 50%)” and the DC50 [2] was greater than 100 nM.
`Cc1ncsc1-c1ccc([C@H](C)NC(=O)[C@@H]2C[C@@H](O)CN2C(=O)[C@@H](c2cc(OCCN(C)Cc3cc4cc(-c5ccccc5O)nnc4[nH]3)no2)C(C)C)cc1` (racemic) [Compound 222, (2S,4R)-4-hydroxy-1-((R)-2-(3-(2-(((3-(2-hydroxyphenyl)-7H-pyrrolo[2,3-c]pyridazin-6-yl)methyl)(methyl)amino)ethoxy)isoxazol-5-yl)-3-methylbutanoyl)-N-((S)-1-(4-(4-methylthiazol-5-yl)phenyl)ethyl)pyrrolidine-2-carboxamide] was tested, and the Dmax [1] was less than 50%, the “BRM HiBit Degradation Maximum (%)” value [2] was “B (“B” indicates maximum degradation ≥ 50%)” and the DC50 [2] was greater than 10 nM.
In the case of `Cc1ncsc1-c1ccc([C@H](C)NC(=O)[C@@H]2C[C@@H](O)CN2C(=O)[C@@H](c2cc(OCCNC3CC4(C3)CC(c3cc5cc(-c6ccccc6O)nnc5[nH]3)C4)no2)C(C)C)cc1` (mixture of isomers) [Compound 223, (2S,4R)-4-hydroxy-1-((R)-2-(3-(2-((6-(3-(2-hydroxyphenyl)-7H-pyrrolo[2,3-c]pyridazin-6-yl)spiro[3.3]heptan-2-yl)amino)ethoxy)isoxazol-5-yl)-3-methylbutanoyl)-N-((S)-1-(4-(4-methylthiazol-5-yl)phenyl)ethyl)pyrrolidine-2-carboxamide], the Dmax [1] is reported as greater than 75%, the DC50 [1] is reported as greater than 100 nM and the “BRM HiBit Degradation Maximum (%)” value [2] is reported as “A (“A” indicates maximum degradation ≥ 75%)”. For the same molecule, the DC50 [2] was greater than 10 nM.
For `Cc1ncsc1-c1ccc([C@H](C)NC(=O)[C@@H]2C[C@@H](O)CN2C(=O)[C@@H](c2cc(OCCN3C[C@@H]4[C@H](C3)[C@H]4c3cc4cc(-c5cc(F)ccc5O)nnc4[nH]3)no2)C(C)C)cc1` (racemic) [Compound 224, (2S,4R)-1-((R)-2-(3-(2-((1R,5S,6R)-6-(3-(5-fluoro-2-hydroxyphenyl)-7H-pyrrolo[2,3-c]pyridazin-6-yl)-3-azabicyclo[3.1.0]hexan-3-yl)ethoxy)isoxazol-5-yl)-3-methylbutanoyl)-4-hydroxy-N-((S)-1-(4-(4-methylthiazol-5-yl)phenyl)ethyl)pyrrolidine-2-carboxamide], the Dmax [1] was greater than 50%, the DC50 [1] was greater than 1000 nM and the “BRM HiBit Degradation Maximum (%)” value [2] was “A (“A” indicates maximum degradation ≥ 75%)”. The DC50 [2] was greater than 10 nM.
In the case of `Cc1ncsc1-c1ccc([C@H](C)NC(=O)[C@@H]2C[C@@H](O)CN2C(=O)[C@@H](c2cc(OCCN3C[C@@H]4[C@H](C3)[C@H]4c3cc4cc(-c5cc(F)cc(Cl)c5O)nnc4[nH]3)no2)C(C)C)cc1` (racemic) [Compound 225, (2S,4R)-1-((R)-2-(3-(2-((1R,5S,6R)-6-(3-(3-chloro-5-fluoro-2-hydroxyphenyl)-7H-pyrrolo[2,3-c]pyridazin-6-yl)-3-azabicyclo[3.1.0]hexan-3-yl)ethoxy)isoxazol-5-yl)-3-methylbutanoyl)-4-hydroxy-N-((S)-1-(4-(4-methylthiazol-5-yl)phenyl)ethyl)pyrrolidine-2-carboxamide], the Dmax [1] is reported as less than 50%, the “BRM HiBit Degradation Maximum (%)” value [2] is reported as “A (“A” indicates maximum degradation ≥ 75%)” and the DC50 [2] is reported as greater than 10 nM.
`Cc1ncsc1-c1ccc([C@H](C)NC(=O)[C@@H]2C[C@@H](O)CN2C(=O)[C@@H](c2cc(OCCN3CC4(C3)CN(c3cc5cc(-c6ccccc6O)nnc5[nH]3)C4)no2)C(C)C)cc1` (racemic) [Compound 226, (2S,4R)-4-hydroxy-1-[(2R)-2-[3-(2-{6-[3-(2-hydroxyphenyl)-7H-pyrrolo[2,3-c]pyridazin-6-yl]-2,6-diazaspiro[3.3]heptan-2-yl}ethoxy)-1,2-oxazol-5-yl]-3-methylbutanoyl]-N-[(1S)-1-[4-(4-methyl-1,3-thiazol-5-yl)phenyl]ethyl]pyrrolidine-2-carboxamide] was tested, and the Dmax [1] was greater than 75%, the DC50 [1] was greater than 100 nM and the “BRM HiBit Degradation Maximum (%)” value [2] was “A (“A” indicates maximum degradation ≥ 75%)”. The DC50 [2] was greater than 100 nM.
